In patent US12325700B2, “Crystal form S4 of the PLK4 inhibitor (1R,2S)-(e)-2-(3-(4-((cis-2,6-dimethylmorpholino)methyl)styryl)-1 h-imidazol-6-yl)-5′-methoxyspiro[cyclopropane-1,3′-indolin]-2′-one fumarate” (UNIVERSITY HEALTH NETWORK, priority 2019, dated 2025):
Values after ≈ are worked out from the molar mass of the structure shown. Where a name gives a salt, the structure may show the parent alone. Read-outs that look alike come from different tables or passages of the source.

How the values were obtained:
[1] = Dynamic vapor sorption (DVS) hygroscopicity measurement; type: physicochemical; details: 25° C.
Description: Hygroscopicity measurements were performed by transferring about 10 mg of sample into a DVS instrument and subsequently recording the weight change with respect to the atmospheric humidity at 25° C. using the following parameters: […]

[2] = Equilibrium solubility in bio-relevant media at ambient temperature; type: physicochemical; details: for solubility thermodynamic: thermodynamic from solid
Description: Also, equilibrium solubilities were measured in various bio-relevant media at ambient temperature.

[3] = Intrinsic dissolution rate at pH 2; type: physicochemical
[4] = In-vitro dissolution testing of tablets (oral dosage forms); type: physicochemical
Excerpt: According to the FDA's guidance, in vitro dissolution testing of a drug substance in its oral dosage forms can be properly designed to establish an In Vivo-In Vitro Correlation (IVIVC), i.e., the correlation between an in-vitro property of a dosage form and an in-vivo response. With this guidance, two batches of fumarate containing crystal forms D and S4 were used to prepare tablets, to evaluate any impact on performance of the drug product. Each of the two batches of fumarate and excipients were individually sieved before weighing. The desired weight of each component was then transferred into a shaker mixer and blended. Tableting for the two batches was then performed using a single punch tablet press.
The performance of these tablets was then evaluated using a properly validated dissolution test method.

[5] = human, in vivo
Description: Patients were dosed in clinical trials approved by Health Canada and the Research Ethics Board of the Hospital administering the drug. Eight patients were administered the form S4 tablets, six at a dose level of 48 mg and two at a dose level of 160 mg. 64 patients were administered the form D tablets at doses ranging from 3-160 mg.
Blood was collected for analysis prior to dosing and 2, 4, and 6 h after dosing. Briefly, using standard phlebotomy procedures, approximately 6 mL of blood was collected into a K3EDTA blood collection tube and then inverted 8-10 times to mix. The sample was then centrifuged at 1,000 g for 10-15 min at approximately 5° C. The plasma fraction of the blood was removed using a disposable pipette, transferred to a new tube, frozen at −70° C. and subsequently shipped on dry ice for analysis.
Levels of compound (I) were measured in plasma using a method validated in accordance to all applicable USFDA, OECD and MHLW regulations and the USFDA Guidance for Industry: Bioanalytical Method Validation May 2001. […] After evaporation of the extraction solvent, the sample extracts were reconstituted and analyzed by reversed-phase HPLC using a Waters Atlantis dC18. […] The ionized compounds were detected using MS/MS. […] Pharmacokinetic parameters were determined using the Excel add in “PK Functions” […]

SMILES	weight gain at 80% RH [1] [%]	solubility thermodynamic ([2]; fasted state simulating gastric fluid (FaSSGF), fassgf or other biorelevant, fasted state simulating gastric fluid (FaSSGF), read-out: equilibrium solubility in FaSSGF) [µg/mL]	solubility thermodynamic ([2]; fasted state simulating intestinal fluid (FaSSIF), fassif, fasted state simulating intestinal fluid (FaSSIF), read-out: equilibrium solubility in FaSSIF) [µg/mL]	Intrinsic dissolution rate [3] [μg/cm^2-min]	Dissolution Max ([4]; time 15) [%]	Dissolution Mean ([4]; time 15) [%]	Dissolution Min ([4]; time 15) [%]	Dissolution Max ([4]; time 30) [%]	Dissolution Mean ([4]; time 30) [%]	Dissolution Min ([4]; time 30) [%]	Dissolution Max ([4]; time 60 (60 min)) [%]	Dissolution Mean ([4]; time 60 (60 min)) [%]	Dissolution Min ([4]; time 60 (60 min)) [%]	equilibrium solubility in FaSSGF ([2]; fasted state simulating gastric fluid (FaSSGF)) [µg/mL]	equilibrium solubility in FaSSIF ([2]; fasted state simulating intestinal fluid (FaSSIF)) [µg/mL]	average dose-normalized exposure (AUC0-6 h divided by dose) [5] [ng·h/mL/mg]
COc1ccc2c(c1)[C@]1(C[C@H]1c1ccc3c(/C=C/c4ccc(CN5C[C@@H](C)O[C@@H](C)C5)cc4)n[nH]c3c1)C(=O)N2 [form D]	0.56	2080 (≈ 3890 µM)	80 (≈ 150 µM)	440.4	64	63	61	86	83	81	98	94	92			
COc1ccc2c(c1)[C@]1(C[C@H]1c1ccc3c(/C=C/c4ccc(CN5C[C@@H](C)O[C@@H](C)C5)cc4)n[nH]c3c1)C(=O)N2 [form S4, (1R,2S)-(e)-2-(3-(4-((cis-2,6-dimethylmorpholino)methyl)styryl)-1 h-imidazol-6-yl)-5′-methoxyspiro[cyclopropane-1,3′-indolin]-2′-one fumarate]	0.41			429.3	77	76	74	91	90	89	95	94	93	2520	50	5.99 ± 2.48
